In one experiment the test system is HCV sub-genomic replicon GS4.3 (HuH-7 hepatoma cells). As to the kind of experiment: Quantitation by ELISA of neomycin phosphotransferase II (NPTII) in the HCV sub-genomic replicon, GS4.3. The format is cell-based. The note with it: Hepatitis C virus, Huh-7, 72 h, read-out: Replicon EC50. The text has this: Quantitation by ELISA of the Selectable Marker Protein, Neomycin Phosphotransferase II (NPTII) in the HCV Sub-Genomic Replicon, GS4.3
The HCV sub-genomic replicon (1377/NS3-3′, accession No. AJ242652), stably maintained in HuH-7 hepatoma cells, was created by Lohmann et al. Science 285: 110-113 (1999). The replicon-containing cell culture, designated GS4.3, was obtained from Dr. Christoph Seeger of the Institute for Cancer Research, Fox Chase Cancer Center, Philadelphia, Pa.
GS4.3 cells were maintained at 37° C., 5% CO2, in DMEM (Gibco 11965-092) supplemented with L-glutamine 200 mM (100×) (Gibco25030-081), non-essential amino acids (NEAA)(Biowhittaker 13-114E), heat-inactivated (HI) Fetal Bovine Serum(FBS)(Hyclone SH3007.03) and […] geneticin (G418)(Gibco 10131-035). Cells were sub-divided 1:3 or 4 every 2-3 days.
24 h prior to the assay, GS4.3 cells were collected, counted, and plated in 96-well plates (Costar 3585) at 7500 cells/well in 100 μl standard maintenance medium (above) and incubated in the conditions above. To initiate the assay, culture medium was removed, cells were washed once with PBS (Gibco 10010-023) and 90 μl Assay Medium (DMEM, L-glutamine, NEAA, 10% HI FBS, no G418) was added. Inhibitors were made as a 10× stock in Assay Medium, (3-fold dilutions from 10 μM to […] final concentration, final DMSO concentration 1%), 10 μl were added to duplicate wells, plates were rocked to mix, and incubated as above for 72 h.
An NPTII Elisa kit was obtained from AGDIA, Inc. (Compound direct ELISA test system for Neomycin Phosphotransferase II, PSP 73000/4800). Manufacturer's instructions were followed, with some modifications. 10×PEB-1 lysis buffer was made up to include 500 μM PMSF (Sigma P7626, 50 mM stock in isopropanol). After 72 h incubation, cells were washed once with PBS and 150 μlPEB-1 with PMSF was added per well. Plates were agitated vigorously for 15 minutes, room temperature, then frozen at −70° C. Plates were thawed, lysates were mixed thoroughly, and 100 μl were applied to an NPTII Elisa plate. A standard curve was made. Lysate from DMSO-treated control cells was pooled, serially diluted with PEB-1 with PMSF, and applied to duplicate wells of the ELISA plate, in a range of initial lysate amount of 150 ul-2.5 ul. In addition, 100 μl buffer alone was applied in duplicate as a blank. Plates were sealed and gently agitated at room temperature for 2 h. Following capture incubation, the plates were washed 5×300 μlwith PBS-T (0.5% Tween-20, PBS-T was supplied in the ELISA kit). For detection, a 1× dilution of enzyme conjugate diluent MRS-2 (5×) was made in PBS-T, into which 1:100 dilutions of enzyme conjugates A and B were added, as per instructions. Plates were resealed, and incubated with agitation, covered, room temperature, for 2 h. The washing was then repeated and 100 μlof room temperature TMB substrate was added. After approximately 30 minutes incubation (room temperature, agitation, covered), the reaction was stopped with 50 μl 3M sulfuric acid. Plates were read at 450 nm on a Molecular Devices Versamax plate reader.
Inhibitor effect was expressed as a percentage of DMSO-treated control signal, and inhibition curves were calculated using a 4-parameter equation: y=A+4B-A)/(1+((C/x)^13))), where C is half-maximal activity or EC50.
As a reminder, the EC50 is the concentration needed to bring the measured effect to its halfway point. For `CC(C)S(=O)(=O)NC(=O)[C@@]12C[C@H]1/C=C\CCCCC[C@H](NC(=O)OC1CCCC1)C(=O)N1C[C@H](OC(=O)N3CCc4ccccc4C3)C[C@H]1C(=O)N2` [Compound 118], the EC50 was below 0.1 µM.

Consider `CS(=O)(=O)NC(=O)[C@@]12C[C@H]1/C=C\CCCCC[C@H](NC(=O)OC1CCCC1)C(=O)N1C[C@H](OC(=O)N3CCc4ccccc4C3)C[C@H]1C(=O)N2` [Compound 119], for which the concentration giving a half-maximal response (EC50) was below 1 µM.

As for `COc1ccc(S(=O)(=O)NC(=O)[C@@]23C[C@H]2/C=C\CCCCC[C@H](NC(=O)OC2CCCC2)C(=O)N2C[C@H](OC(=O)N4CCc5ccccc5C4)C[C@H]2C(=O)N3)cc1` [Compound 120], the EC50 was below 0.1 µM.

`CN(C)c1ccc(S(=O)(=O)NC(=O)[C@@]23C[C@H]2/C=C\CCCCC[C@H](NC(=O)OC2CCCC2)C(=O)N2C[C@H](OC(=O)N4CCc5ccccc5C4)C[C@H]2C(=O)N3)cc1` [Compound 183]: the EC50 was below 0.1 µM.

As to `Cc1noc(C)c1S(=O)(=O)NC(=O)[C@@]12C[C@H]1/C=C\CCCCC[C@H](NC(=O)OC1CCCC1)C(=O)N1C[C@H](OC(=O)N3CCc4ccccc4C3)C[C@H]1C(=O)N2` [Compound 187], the concentration giving a half-maximal response (EC50) was below 1 µM.

As for `COc1cccc(S(=O)(=O)NC(=O)[C@@]23C[C@H]2/C=C\CCCCC[C@H](NC(=O)OC2CCCC2)C(=O)N2C[C@H](OC(=O)N4CCc5ccccc5C4)C[C@H]2C(=O)N3)c1` [Compound 188], the concentration giving a half-maximal response (EC50) was below 0.1 µM.

In the case of `O=C1N[C@]2(C(=O)NS(=O)(=O)C3CC3)C[C@H]2/C=C\CCCCC[C@H](Nc2c(N3C4CCC3CC4)c(=O)c2=O)C(=O)N2C[C@H](OC(=O)N3Cc4cccc(F)c4C3)C[C@@H]12` [Compound 199], the EC50 is below 10 µM.

Turning to `N[C@H]1CCCCC/C=C\[C@@H]2C[C@@]2(C(=O)NS(=O)(=O)Nc2ccc(Cl)cc2)NC(=O)[C@@H]2C[C@@H](OC(=O)N3Cc4ccccc4C3)CN2C1=O` [Compound 203], the half-maximal effective concentration (EC50) is above 10 µM.

Staying with this experiment, now noted: Hepatitis C virus, Huh-7; GS4.3 cells, 72 h; read-out: Replicon EC50.
For `CC(C)(C)C(O)C(=O)NC1CCCCCC=CC2CC2(C(=O)NS(=O)(=O)C2CC2)NC(=O)C2CC(OC(=O)N3Cc4cccc(F)c4C3)CN2C1=O` (single isomer, unassigned) [Compound 248], the EC50 is below 1 µM.

`CC(C)(C)OC(=O)N[C@H]1CCCCC/C=C\[C@@H]2C[C@@]2(C(=O)O)NC(=O)C2C[C@@H](OC(=O)N3Cc4c(Cl)ccc(Cl)c4C3)CN2C1=O` (some centres unmarked) [Compound 144]: the EC50 is below 10 µM.

In the case of `CC(C)(C)OC(=O)N[C@H]1CCCCC/C=C\[C@@H]2C[C@@]2(C(=O)NS(=O)(=O)C2CC2)NC(=O)C2C[C@@H](OC(=O)N3Cc4c(Cl)ccc(Cl)c4C3)CN2C1=O` (some centres unmarked) [Compound 145], the concentration giving a half-maximal response (EC50) is below 0.1 µM.

Take `O=C(N[C@H]1CCCCC/C=C\[C@@H]2C[C@@]2(C(=O)O)NC(=O)C2C[C@@H](OC(=O)N3Cc4ccncc4C3)CN2C1=O)OC1CCCC1` (some centres unmarked) [Compound 146]: the EC50 is above 10 µM.

As for `C[C@H](NC(=O)O[C@@H]1CC2C(=O)N[C@]3(C(=O)NS(=O)(=O)C4CC4)C[C@H]3/C=C\CCCCC[C@H](NC(=O)OC(C)(C)C)C(=O)N2C1)c1ccc(F)cn1` (some centres unmarked) [Compound 149], the concentration giving a half-maximal response (EC50) is above 10 µM.

As for `O=C(N[C@H]1CCCCC/C=C\[C@@H]2C[C@@]2(C(=O)NS(=O)(=O)C2CC2)NC(=O)C2C[C@@H](OC(=O)N3Cc4ccncc4C3)CN2C1=O)OC1CCCC1` (some centres unmarked) [Compound 155], the EC50 was below 1 µM.

Turning to `N[C@H]1CCCCC/C=C\[C@@H]2C[C@@]2(C(=O)NS(=O)(=O)C2CC2)NC(=O)C2C[C@@H](OC(=O)N3Cc4c(Cl)ccc(Cl)c4C3)CN2C1=O` (some centres unmarked) [Compound 156], the EC50 was below 1 µM.

For the molecule `Cc1ccccc1S(=O)(=O)NC(=O)[C@@]12C[C@H]1/C=C\CCCCC[C@H](NC(=O)OC(C)(C)C)C(=O)N1C[C@H](OC(=O)N3Cc4cccc(F)c4C3)CC1C(=O)N2` (some centres unmarked) [Compound 157], the EC50 was below 0.1 µM.

As to `O=C(N[C@@H]1CCCCC/C=C\[C@@H]2C[C@]2(C(=O)NS(=O)(=O)N2CCC(F)(F)C2)NC(=O)C2C[C@H](OC(=O)N3Cc4ccccc4C3)CN2C1=O)OC1CCCC1` (some centres unmarked) [Compound 227], the EC50 is below 0.1 µM.

Regarding `O=C1N[C@]2(C(=O)NS(=O)(=O)C3CC3)C[C@H]2/C=C\CCCCC[C@H](NC(=S)NC2CCCC2)C(=O)N2CC(OC(=O)N3Cc4cccc(F)c4C3)C[C@@H]12` (some centres unmarked) [Compound 240], the EC50 is below 1 µM.

Regarding `O=C1N[C@]2(C(=O)NS(=O)(=O)C3CC3)C[C@H]2/C=C\CCCCC[C@H](Nc2c(N3CCC3)c(=O)c2=O)C(=O)N2CC(OC(=O)N3CCc4ccccc4C3)C[C@@H]12` (some centres unmarked) [Compound 242], the concentration giving a half-maximal response (EC50) was below 10 µM.

Turning to `O=C1N[C@]2(C(=O)NS(=O)(=O)C3CC3)C[C@H]2/C=C\CCCCC[C@H](NC(=O)N2CCCC2)C(=O)N2CC(OC(=O)N3Cc4cccc(F)c4C3)C[C@@H]12` (some centres unmarked) [Compound 243], the 50% effective concentration (EC50) is below 0.1 µM.

With `O=C1N[C@]2(C(=O)NS(=O)(=O)C3CC3)C[C@H]2/C=C\CCCCC[C@H](NC(=S)N2CCCC2)C(=O)N2CC(OC(=O)N3Cc4cccc(F)c4C3)C[C@@H]12` (some centres unmarked) [Compound 244], the EC50 is below 0.1 µM.

Turning to `CN(Cc1ccccc1)C(=O)OC1C[C@H]2C(=O)N[C@]3(C(=O)NS(=O)(=O)C4CC4)C[C@H]3/C=C\CCCCC[C@H](NC(=O)OC(C)(C)C)C(=O)N2C1` (some centres unmarked) [Compound 245], the concentration for a half-maximal effect (EC50) was below 1 µM.

In the case of `CNc1c(NC(=O)C23C[C@H]2/C=C\CCCCC[C@H](NC(=O)OC(C)(C)C)C(=O)N2C[C@H](OC(=O)N4Cc5cccc(F)c5C4)C[C@H]2C(=O)N3)c(=O)c1=O` (some centres unmarked) [Compound 646], the EC50 was above 10 µM.

For the molecule `O=C(N[C@H]1CCCCC/C=C\[C@@H]2C[C@@]2(C(=O)NC(=O)C2CC2)NC(=O)C2C[C@@H](OC(=O)N3CCc4ccccc4C3)CN2C1=O)OC1CCCC1` (some centres unmarked) [Compound 706], the EC50 was below 0.1 µM.

For the molecule `CC(C)(C)OC(=O)N[C@H]1CCC(O)CC/C=C\[C@@H]2C[C@@]2(C(=O)NS(=O)(=O)C2CC2)NC(=O)[C@@H]2C[C@@H](OC(=O)N3Cc4cccc(F)c4C3)CN2C1=O` (some centres unmarked) [Compound 1018], the concentration for a half-maximal effect (EC50) is below 1 µM.

Consider `CC(C)(C)OC(=O)N[C@H]1COCCC/C=C\[C@@H]2C[C@@]2(C(=O)NS(=O)(=O)C2CC2)NC(=O)[C@@H]2C[C@@H](OC(=O)N3Cc4cccc(Cl)c4C3)CN2C1=O` [Compound 1025], for which the EC50 is below 0.1 µM.
